The target of one test is T1, UL12 (Human alphaherpesvirus 1 strain 17, UniProt P04294).
T1 construct: full-length alkaline nuclease, purified from baculovirus-infected Sf9 cells
The test can be described thus: PicoGreen dsDNA exonuclease assay. In kind it is biochemical. Conditions: 10 nM UL12, 1 nM linearized pUC19 DNA, 1 mM MgCl2, pH 8.2, 37°C.

The target of another test is T2, His-UL30ΔN42 (Human alphaherpesvirus 1 strain KOS, UniProt P04292).
T2 construct: gene UL30; His-tagged, N-terminal 42 residues deleted; gift from Donald Coen; no UL42 mentioned
T2 sequence (P04292 43-1235, stated change not applied): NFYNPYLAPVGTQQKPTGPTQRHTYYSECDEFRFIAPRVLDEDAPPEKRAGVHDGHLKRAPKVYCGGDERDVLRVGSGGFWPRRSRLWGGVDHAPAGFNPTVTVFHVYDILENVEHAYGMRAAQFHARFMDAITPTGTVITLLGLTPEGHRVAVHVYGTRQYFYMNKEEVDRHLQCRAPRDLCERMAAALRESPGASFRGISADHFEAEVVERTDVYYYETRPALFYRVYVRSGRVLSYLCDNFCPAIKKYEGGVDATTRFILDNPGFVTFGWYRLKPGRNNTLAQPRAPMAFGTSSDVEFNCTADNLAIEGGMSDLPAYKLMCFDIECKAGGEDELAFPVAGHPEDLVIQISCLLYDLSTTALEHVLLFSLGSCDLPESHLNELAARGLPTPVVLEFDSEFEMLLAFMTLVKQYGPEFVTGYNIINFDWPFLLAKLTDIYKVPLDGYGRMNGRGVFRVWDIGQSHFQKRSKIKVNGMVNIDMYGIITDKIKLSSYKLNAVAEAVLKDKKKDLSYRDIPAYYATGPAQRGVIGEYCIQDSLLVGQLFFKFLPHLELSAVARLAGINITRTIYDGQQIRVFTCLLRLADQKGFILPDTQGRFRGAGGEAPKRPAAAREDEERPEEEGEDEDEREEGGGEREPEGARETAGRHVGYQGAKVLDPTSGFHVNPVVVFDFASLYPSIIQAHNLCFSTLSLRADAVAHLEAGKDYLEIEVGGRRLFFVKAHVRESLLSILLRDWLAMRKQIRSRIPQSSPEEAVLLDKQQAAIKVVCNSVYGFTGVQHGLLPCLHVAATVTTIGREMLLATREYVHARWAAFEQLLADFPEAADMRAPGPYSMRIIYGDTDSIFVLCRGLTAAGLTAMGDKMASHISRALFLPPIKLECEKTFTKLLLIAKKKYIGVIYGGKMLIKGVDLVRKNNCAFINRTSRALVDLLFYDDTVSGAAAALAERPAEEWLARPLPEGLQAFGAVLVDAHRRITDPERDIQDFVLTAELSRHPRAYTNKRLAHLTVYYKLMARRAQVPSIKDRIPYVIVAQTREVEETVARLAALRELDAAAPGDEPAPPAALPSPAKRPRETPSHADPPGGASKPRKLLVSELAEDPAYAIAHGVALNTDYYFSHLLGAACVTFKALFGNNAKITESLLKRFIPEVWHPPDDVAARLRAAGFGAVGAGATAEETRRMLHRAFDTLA
As to the kind of experiment: gel-based primer extension polymerase assay. In kind it is biochemical. Conditions: 50 nM enzyme, dNTPs, 10 mM MgCl2, pH 7.6, 37°C.

Another test concerns the target T3, ICP8Δ60 (Human alphaherpesvirus 1 strain KOS, UniProt P17470).
T3 construct: gene DBP; 60-residue deletion; source not described
The test can be described thus: thermal shift, nanoDSF (Tycho NT.[…]). In kind it is binding. Conditions: 20x molar excess of compound to protein, 5 mM MgCl2, pH 7.5, without ssDNA. For orientation: Differential scanning fluorimetry follows unfolding on heating by fluorescence.

Another test addresses T4, UL15C (Human alphaherpesvirus 1 strain 17, UniProt P04295).
T4 construct: gene TRM3; C-terminal nuclease domain, residues 471 to 736, pET28b(+), from E. coli BL21(DE3); without UL28 and UL33
The test can be described thus: dual-probe fluorescence nuclease assay. In kind it is biochemical.

T1 sequence (P04294 whole entry, looked up): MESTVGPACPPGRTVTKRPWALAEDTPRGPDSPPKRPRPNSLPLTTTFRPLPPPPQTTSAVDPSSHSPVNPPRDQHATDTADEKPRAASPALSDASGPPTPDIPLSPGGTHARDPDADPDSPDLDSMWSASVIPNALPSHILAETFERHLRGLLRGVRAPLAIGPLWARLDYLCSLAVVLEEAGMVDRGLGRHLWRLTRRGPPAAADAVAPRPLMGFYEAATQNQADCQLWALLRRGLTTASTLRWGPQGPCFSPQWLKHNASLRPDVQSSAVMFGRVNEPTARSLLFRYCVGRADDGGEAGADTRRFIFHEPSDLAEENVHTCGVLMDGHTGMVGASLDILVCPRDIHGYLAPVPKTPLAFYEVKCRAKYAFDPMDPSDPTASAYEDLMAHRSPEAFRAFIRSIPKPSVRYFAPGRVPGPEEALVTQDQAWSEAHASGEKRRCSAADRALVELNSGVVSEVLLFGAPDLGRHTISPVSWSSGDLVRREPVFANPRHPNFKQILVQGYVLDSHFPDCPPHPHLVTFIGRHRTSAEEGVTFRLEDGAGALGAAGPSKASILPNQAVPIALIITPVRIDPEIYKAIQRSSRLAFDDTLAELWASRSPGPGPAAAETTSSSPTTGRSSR
T3 sequence (P17470 1-1136, stated change not applied): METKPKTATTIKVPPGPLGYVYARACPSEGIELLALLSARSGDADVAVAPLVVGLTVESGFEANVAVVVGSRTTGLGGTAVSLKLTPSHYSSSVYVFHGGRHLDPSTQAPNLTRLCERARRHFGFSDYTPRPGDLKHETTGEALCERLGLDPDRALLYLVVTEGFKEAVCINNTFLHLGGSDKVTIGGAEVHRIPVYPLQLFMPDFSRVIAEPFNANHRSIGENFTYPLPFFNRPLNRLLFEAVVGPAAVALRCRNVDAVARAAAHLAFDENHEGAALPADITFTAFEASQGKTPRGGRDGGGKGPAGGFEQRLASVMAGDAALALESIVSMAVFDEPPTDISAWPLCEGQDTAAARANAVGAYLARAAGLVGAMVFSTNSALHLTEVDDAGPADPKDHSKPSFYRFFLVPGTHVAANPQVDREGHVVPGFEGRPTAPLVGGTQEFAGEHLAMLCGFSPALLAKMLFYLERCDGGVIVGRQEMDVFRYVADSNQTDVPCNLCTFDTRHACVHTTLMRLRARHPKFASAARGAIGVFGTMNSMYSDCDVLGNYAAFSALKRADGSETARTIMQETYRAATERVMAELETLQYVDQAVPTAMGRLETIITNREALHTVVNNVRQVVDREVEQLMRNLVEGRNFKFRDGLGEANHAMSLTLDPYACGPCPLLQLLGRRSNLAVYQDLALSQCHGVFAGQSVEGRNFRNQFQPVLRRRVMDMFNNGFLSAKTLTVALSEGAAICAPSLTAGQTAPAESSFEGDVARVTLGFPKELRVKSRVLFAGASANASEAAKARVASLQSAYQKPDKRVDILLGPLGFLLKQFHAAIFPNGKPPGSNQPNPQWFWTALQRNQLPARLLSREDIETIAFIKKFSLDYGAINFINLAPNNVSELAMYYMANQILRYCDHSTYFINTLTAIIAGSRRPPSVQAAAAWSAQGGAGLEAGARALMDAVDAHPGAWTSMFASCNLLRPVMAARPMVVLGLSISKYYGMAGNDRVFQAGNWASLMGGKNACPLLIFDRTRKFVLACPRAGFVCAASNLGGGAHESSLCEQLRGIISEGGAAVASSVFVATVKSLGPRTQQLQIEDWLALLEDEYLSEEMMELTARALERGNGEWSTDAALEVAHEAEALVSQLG
T4 sequence (P04295 471-735): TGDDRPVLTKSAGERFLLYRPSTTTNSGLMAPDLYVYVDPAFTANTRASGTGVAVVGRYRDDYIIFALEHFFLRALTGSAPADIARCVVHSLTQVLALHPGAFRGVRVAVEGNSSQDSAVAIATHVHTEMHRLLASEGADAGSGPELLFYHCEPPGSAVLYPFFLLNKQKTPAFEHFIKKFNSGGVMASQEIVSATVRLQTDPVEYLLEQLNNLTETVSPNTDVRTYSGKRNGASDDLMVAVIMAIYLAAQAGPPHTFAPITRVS

For orientation: inhibition means the relative decrease from the control value, in per cent. A higher inhibition goes with a strong effect. For `O=C(Nc1ccc(Br)cc1)c1ccc2cccnc2c1O` [AK-157], the “% inhibition at 20 μM” value at UL12 is “strong inhibition was observed for PPG, AK-157, and AK-166”. Further, the “inhibition at 20 μM” value on His-UL30ΔN42 was “only AK-157 and the known polymerase inhibitor phosphonoacetic acid (PAA) showed strong inhibition”.

`CC(C)c1ccc(CNC(=O)c2ccc3cccnc3c2O)cc1` [AK-166]: the “% inhibition at 20 μM” value at UL12 was “strong inhibition was observed for PPG, AK-157, and AK-166”.

Take `O=c1c(O)cccc2cc(O)c(O)c(O)c12` [purpurogallin]: on UL12, the “% inhibition at 20 μM” value is “strong inhibition was observed for PPG, AK-157, and AK-166”. The Ti result at ICP8Δ60 was “RAL had no appreciable interactions with ICP8, while PPG showed a modest effect”.

`Cc1nnc(C(=O)NC(C)(C)c2nc(C(=O)NCc3ccc(F)cc3)c(O)c(=O)n2C)o1` [raltegravir] returned an inhibition at 12.5 µM against UL15C of around 80%.

(Values after article PMC8787488, “Two-Metal Ion-Dependent Enzymes as Potential Antiviral Targets in Human Herpesviruses” (mBio, 2022).)
